Measurements published in article PMC7736581, “Activation of the IRE1 RNase through remodeling of the kinase front pocket by ATP-competitive ligands” (Nature Communications, 2020).

Key:
Assay in all cases: biochemical
Design in all cases: Invitrogen kinase panel: Z'Lyte activity (ATP at Km) or LanthaScreen competitive ATP-site binding, percent inhibition
MLK1 = biological target: T1, MLK1 (Homo sapiens, UniProt P80192)
T1 construct: gene MAP3K9

PKC_beta1 = biological target: T2, PKC_beta1 (Homo sapiens, UniProt P05771)
T2 construct: gene PRKCB; isoform beta1

Fgr = Fgr (Homo sapiens, UniProt P09769)
Abl = biological target: T3, Abl (Homo sapiens, UniProt P00519)
T3 construct: gene ABL1

Aurora_B = biological target: T4, Aurora_B (Homo sapiens, UniProt Q96GD4)
T4 construct: gene AURKB

JAK1 = JAK1 (Homo sapiens, UniProt P23458)
Met = Met (Homo sapiens, UniProt P08581)
TYK2 = TYK2 (Homo sapiens, UniProt P29597)
KDR = KDR (Homo sapiens, UniProt P35968)
Lyn = Lyn (Homo sapiens, UniProt P07948)
TrkA = biological target: T5, TrkA (Homo sapiens, UniProt P04629)
T5 construct: gene NTRK1

ERK2 = biological target: T6, ERK2 (Homo sapiens, UniProt P28482)
T6 construct: gene MAPK1

B-Raf = biological target: T7, B-Raf (Homo sapiens, UniProt P15056)
T7 construct: gene BRAF

IKK_beta = biological target: T8, IKK_beta (Homo sapiens, UniProt O14920)
T8 construct: gene IKBKB
T8 sequence (O14920 1-756): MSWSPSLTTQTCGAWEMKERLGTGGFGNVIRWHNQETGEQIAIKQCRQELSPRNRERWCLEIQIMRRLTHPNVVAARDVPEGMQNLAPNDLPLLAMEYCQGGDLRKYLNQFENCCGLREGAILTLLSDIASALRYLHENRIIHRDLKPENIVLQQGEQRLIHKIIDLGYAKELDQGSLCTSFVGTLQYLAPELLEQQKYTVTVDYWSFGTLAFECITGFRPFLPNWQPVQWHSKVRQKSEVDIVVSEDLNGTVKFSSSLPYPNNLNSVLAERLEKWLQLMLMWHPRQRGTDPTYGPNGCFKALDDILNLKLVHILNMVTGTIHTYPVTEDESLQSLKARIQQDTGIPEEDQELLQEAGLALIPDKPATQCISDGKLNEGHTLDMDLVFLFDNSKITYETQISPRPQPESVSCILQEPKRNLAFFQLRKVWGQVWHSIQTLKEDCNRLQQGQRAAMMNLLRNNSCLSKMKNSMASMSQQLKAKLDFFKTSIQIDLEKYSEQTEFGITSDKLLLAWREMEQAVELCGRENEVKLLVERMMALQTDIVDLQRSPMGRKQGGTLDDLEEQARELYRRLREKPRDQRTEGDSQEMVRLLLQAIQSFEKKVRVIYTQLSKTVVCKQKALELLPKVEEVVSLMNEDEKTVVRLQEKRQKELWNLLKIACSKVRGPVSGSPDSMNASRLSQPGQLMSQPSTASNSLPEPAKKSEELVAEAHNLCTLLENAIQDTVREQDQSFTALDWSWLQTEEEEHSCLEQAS

PKA = biological target: T9, PKA (Homo sapiens, UniProt P17612)
T9 construct: gene PRKACA

Sequence of Met (P08581 whole entry): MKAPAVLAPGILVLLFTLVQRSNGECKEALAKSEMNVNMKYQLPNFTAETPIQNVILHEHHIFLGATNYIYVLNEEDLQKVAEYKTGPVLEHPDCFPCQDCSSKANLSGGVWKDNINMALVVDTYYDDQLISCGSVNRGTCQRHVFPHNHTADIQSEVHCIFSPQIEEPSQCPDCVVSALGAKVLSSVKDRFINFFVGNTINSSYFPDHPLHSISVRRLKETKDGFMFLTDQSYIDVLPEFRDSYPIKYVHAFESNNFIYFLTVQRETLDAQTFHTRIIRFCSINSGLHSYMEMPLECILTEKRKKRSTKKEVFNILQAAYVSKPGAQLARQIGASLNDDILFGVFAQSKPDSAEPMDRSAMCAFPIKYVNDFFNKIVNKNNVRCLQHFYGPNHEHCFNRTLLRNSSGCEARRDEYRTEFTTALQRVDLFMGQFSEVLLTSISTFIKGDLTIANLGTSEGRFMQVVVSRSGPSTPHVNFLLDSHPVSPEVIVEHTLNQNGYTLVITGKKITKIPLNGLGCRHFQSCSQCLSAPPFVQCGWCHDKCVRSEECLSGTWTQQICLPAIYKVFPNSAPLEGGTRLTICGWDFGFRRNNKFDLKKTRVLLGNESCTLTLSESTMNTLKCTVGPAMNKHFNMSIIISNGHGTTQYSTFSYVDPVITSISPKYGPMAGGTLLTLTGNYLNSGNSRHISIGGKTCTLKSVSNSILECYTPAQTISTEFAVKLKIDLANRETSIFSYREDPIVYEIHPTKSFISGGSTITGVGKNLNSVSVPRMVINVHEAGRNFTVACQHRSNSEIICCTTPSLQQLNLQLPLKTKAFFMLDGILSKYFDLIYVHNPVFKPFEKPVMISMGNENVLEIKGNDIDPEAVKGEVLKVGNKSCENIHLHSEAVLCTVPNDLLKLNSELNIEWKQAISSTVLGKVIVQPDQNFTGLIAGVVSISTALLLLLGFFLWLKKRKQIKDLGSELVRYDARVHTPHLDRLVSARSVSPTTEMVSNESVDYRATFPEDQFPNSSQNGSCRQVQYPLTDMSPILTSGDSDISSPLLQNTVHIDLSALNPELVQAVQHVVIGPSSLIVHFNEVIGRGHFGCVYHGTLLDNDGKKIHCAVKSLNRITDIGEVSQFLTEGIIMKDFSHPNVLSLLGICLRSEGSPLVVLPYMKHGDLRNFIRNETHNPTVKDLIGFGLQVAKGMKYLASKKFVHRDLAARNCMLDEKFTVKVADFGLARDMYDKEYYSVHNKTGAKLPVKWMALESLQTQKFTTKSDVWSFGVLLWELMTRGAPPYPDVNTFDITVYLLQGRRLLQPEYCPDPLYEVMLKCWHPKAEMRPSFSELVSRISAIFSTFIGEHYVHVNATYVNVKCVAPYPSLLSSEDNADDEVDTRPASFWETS
T1 sequence (P80192 whole entry): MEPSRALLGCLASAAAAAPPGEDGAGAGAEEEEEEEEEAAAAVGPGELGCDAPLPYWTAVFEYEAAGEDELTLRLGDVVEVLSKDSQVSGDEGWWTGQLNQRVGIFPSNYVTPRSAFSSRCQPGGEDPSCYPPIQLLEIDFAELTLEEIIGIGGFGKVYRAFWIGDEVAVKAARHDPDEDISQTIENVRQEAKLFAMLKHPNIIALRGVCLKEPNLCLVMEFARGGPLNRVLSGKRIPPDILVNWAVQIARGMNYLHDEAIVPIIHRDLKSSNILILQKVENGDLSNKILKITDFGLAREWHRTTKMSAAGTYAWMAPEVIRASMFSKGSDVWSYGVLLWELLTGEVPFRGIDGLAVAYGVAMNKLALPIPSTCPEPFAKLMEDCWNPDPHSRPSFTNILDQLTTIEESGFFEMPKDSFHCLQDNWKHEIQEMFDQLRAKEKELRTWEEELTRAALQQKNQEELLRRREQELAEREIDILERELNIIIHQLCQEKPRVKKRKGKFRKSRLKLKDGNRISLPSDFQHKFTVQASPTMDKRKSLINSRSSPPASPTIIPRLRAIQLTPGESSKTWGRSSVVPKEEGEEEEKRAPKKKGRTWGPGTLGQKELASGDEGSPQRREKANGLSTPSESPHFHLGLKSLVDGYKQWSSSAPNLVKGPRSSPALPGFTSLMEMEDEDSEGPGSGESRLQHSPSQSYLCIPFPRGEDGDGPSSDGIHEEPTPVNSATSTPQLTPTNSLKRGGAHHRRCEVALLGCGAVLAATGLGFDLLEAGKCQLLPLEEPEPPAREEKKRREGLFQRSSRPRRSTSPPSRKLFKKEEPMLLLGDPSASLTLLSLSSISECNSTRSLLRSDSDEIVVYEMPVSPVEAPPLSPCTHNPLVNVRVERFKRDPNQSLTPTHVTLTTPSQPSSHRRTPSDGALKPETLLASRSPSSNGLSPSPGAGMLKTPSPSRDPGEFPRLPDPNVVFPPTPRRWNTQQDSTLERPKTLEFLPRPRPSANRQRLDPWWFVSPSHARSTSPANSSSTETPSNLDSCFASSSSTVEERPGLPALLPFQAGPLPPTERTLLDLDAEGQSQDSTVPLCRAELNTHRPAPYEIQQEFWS
Sequence of JAK1 (P23458 whole entry): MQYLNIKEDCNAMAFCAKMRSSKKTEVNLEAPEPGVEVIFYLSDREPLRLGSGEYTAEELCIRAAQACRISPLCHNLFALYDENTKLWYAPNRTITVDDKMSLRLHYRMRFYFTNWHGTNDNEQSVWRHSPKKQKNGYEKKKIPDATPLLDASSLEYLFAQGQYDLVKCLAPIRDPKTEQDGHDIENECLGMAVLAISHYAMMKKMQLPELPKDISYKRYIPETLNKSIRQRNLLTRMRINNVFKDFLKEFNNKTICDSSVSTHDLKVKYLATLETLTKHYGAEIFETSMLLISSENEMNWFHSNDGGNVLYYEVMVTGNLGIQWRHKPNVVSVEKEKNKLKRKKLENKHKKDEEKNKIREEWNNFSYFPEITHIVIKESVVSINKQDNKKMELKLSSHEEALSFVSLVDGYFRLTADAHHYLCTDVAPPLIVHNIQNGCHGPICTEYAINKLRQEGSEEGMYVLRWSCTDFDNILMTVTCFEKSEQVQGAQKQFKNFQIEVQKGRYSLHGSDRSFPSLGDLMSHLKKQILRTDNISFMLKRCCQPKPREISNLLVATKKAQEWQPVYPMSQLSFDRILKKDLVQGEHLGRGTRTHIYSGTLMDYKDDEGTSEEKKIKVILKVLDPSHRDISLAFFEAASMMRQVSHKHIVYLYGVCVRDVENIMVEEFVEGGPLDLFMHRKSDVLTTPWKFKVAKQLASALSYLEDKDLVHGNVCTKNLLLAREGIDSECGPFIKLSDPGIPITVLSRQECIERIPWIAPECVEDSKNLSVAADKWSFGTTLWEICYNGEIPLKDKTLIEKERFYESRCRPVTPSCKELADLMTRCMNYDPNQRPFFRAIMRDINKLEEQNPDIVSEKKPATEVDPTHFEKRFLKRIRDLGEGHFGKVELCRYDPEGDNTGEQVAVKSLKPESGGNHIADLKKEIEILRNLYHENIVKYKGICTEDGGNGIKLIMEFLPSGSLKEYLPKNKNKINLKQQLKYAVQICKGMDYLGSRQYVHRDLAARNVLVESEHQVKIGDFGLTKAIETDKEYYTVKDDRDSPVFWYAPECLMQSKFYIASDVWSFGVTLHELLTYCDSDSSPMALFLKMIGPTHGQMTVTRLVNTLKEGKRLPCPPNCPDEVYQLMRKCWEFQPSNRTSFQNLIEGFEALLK
Sequence of Lyn (P07948 whole entry): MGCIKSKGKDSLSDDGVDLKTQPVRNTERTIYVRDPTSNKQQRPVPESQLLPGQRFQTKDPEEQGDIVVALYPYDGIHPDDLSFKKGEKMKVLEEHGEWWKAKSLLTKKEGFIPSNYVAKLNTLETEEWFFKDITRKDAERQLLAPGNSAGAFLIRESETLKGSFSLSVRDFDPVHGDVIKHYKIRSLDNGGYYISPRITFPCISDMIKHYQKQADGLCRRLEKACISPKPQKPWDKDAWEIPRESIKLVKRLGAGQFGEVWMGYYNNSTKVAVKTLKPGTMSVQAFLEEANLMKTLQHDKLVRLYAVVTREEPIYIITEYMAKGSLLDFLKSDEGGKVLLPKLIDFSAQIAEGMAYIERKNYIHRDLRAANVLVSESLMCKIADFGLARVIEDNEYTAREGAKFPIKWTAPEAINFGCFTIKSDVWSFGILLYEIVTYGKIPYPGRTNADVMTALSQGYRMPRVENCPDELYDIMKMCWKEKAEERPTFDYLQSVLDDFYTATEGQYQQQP
T4 sequence (Q96GD4 whole entry): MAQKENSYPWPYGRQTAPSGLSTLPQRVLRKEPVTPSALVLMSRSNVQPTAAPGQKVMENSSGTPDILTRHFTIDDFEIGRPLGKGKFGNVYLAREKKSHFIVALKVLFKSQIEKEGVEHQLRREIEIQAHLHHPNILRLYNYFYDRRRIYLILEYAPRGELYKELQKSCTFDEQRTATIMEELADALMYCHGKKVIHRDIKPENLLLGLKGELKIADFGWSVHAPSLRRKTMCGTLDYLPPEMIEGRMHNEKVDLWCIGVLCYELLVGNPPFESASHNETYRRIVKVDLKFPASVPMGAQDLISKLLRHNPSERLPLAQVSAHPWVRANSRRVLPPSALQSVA
Sequence of Fgr (P09769 whole entry): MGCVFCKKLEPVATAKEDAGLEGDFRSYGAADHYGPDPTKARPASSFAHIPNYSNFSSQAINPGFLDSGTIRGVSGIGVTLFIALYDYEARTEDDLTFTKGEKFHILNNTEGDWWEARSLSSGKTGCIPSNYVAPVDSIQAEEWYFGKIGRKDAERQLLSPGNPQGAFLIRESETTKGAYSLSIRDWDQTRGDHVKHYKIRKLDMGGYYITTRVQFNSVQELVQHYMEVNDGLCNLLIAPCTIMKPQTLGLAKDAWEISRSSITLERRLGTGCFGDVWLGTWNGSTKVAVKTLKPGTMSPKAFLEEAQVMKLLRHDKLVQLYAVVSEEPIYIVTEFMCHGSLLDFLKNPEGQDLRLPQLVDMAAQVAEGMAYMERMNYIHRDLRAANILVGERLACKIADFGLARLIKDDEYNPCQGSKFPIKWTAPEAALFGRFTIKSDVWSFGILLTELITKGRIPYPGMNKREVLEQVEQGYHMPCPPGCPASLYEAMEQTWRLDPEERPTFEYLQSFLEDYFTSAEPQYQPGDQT

Row | inhibition at 1 µM (MLK1) [%] | inhibition at 1 µM (PKC_beta1) [%] | inhibition at 1 µM (Fgr) [%] | inhibition at 1 µM (Abl) [%] | inhibition at 1 µM (Aurora_B) [%] | inhibition at 1 µM (JAK1) [%] | inhibition at 1 µM (Met) [%] | inhibition at 1 µM (TYK2) [%] | inhibition at 1 µM (KDR) [%] | inhibition at 1 µM (Lyn) [%] | inhibition at 1 µM (TrkA) [%] | inhibition at 1 µM (ERK2) [%] | inhibition at 1 µM (B-Raf) [%] | inhibition at 1 µM (IKK_beta) [%] | inhibition at 1 µM (PKA) [%] | Structure (SMILES)
1 | -2.5 | 5.5 | 6 | -1.5 | 2 | 0.5 | 5 | -2 | -4 | 13 | 10.5 | 2 | 5.5 | 0 | -8 | CC#CC(=O)Nc1cccc2c(Oc3ncccc3-c3ccnc(N[C@H]4CCCNC4)n3)c(C)ccc12 [G-7658]
2 | 98.1 | 66.7 | 77.1 | 94.4 | 82.2 | 68.7 | 88.8 | 84.5 | 96.3 | 87.1 | 91.2 | 78.3 | 81.2 | 80.4 | 43 | O=c1cc(-c2n[nH]c3ncc(-c4c(F)cccc4F)cc23)nc(N2CCC(O)CC2)[nH]1 [G-9807]

Row | Structure (SMILES) | inhibition at 1 µM (MLK1) [%] | inhibition at 1 µM (PKC_beta1) [%] | inhibition at 1 µM (Fgr) [%] | inhibition at 1 µM (Abl) [%] | inhibition at 1 µM (Aurora_B) [%] | inhibition at 1 µM (JAK1) [%] | inhibition at 1 µM (Met) [%] | inhibition at 1 µM (TYK2) [%] | inhibition at 1 µM (KDR) [%] | inhibition at 1 µM (Lyn) [%] | inhibition at 1 µM (TrkA) [%] | inhibition at 1 µM (ERK2) [%] | inhibition at 1 µM (B-Raf) [%] | inhibition at 1 µM (IKK_beta) [%] | inhibition at 1 µM (PKA) [%]
3 | CCOC(=O)Nc1cccc2c(Oc3ncccc3-c3ccnc(N[C@H]4CCCNC4)n3)c(C)ccc12 [G-1749] | -8.5 | 5.5 | 1.5 | -7.5 | 2.5 | -4 | 4 | -3 | -18 | 6.5 | -4 | 6 | 9.5 | -2 | -9
